This is an account of results in US6630125B2, “18F-labeled choline analogs” (priority 2000, dated 2003).

Where two headings read alike, the source gives them in different places.

Data set [1] has as its system mice with PC-3 xenografts. The procedure: Body weight and tumor volume were measured weekly and tumor volume (mm3) was calculated using the formula S2×L/2, where S and L represent the small and large diameters of the tumor, respectively.
A prescribed duration of time was allowed before procurement of heart, liver, lung, blood, kidney, bone (femur), brain (whole), prostate gland, tumor, bladder, and skeletal muscle. The tissues were weighed, and counted for ^18F in a gamma counter, then dissolved in Solvable (Dupont, Boston Mass.) and counted for ^14C in a liquid scintillation counter. For the bladder, the percentage of the injected dose in the urine was determined. For all other tissues, radiotracer uptake was calculated as: […]

Data set [2] concerns patients with prostate cancer. Kind of data set: PET imaging in patients with prostate cancer. The protocol: The distribution of FCH in PET imaging studies was evaluated in 14 patients with prostate cancer, 14 patients with breast cancer, and 5 patients with brain tumors. Imaging was performed using the Advance PET scanner (GE Medical Systems, Milwaukee, Wis.). […] In prostate cancer patients, a transmission scan of the pelvic region was obtained before administration of radiotracer. FCH (2.5-5 mCi) was administered intravenously, and dynamic imaging of the pelvis region was commenced for 20-30 min. During image reconstruction, the emission data in the pelvic region were corrected for photon attenuation using the transmission scan. Immediately following the dynamic scan, a whole-body emission scan was performed without transmission scanning for attenuation correction. The images were reconstructed using an Ordered Subset Expectation Maximum (OS-EM) algorithm. Regions-of-interest were drawn manually on the attenuation corrected images for evaluation of FCH kinetics in tissues. Standardized uptake values of FCH uptake in tissues were calculated using the attenuation-corrected images according to the equation: [formula]
Patient 2: Transmission and FCH emission scans of a person with hormone naive clinical stage T2 prostate cancer were commenced over the lower pelvis.
The same patient was scanned with FDG within the same week (FIG. 8).
Patient 4: A person with a history of clinical stage T3b prostate cancer treated by radical retropubic prostatectomy was diagnosed with metastatic disease by bone scan. FCH-PET imaging was performed before and after initiating androgen deprivation therapy. In the first study, whole-body emission scanning was started 5 min after injection, beginning at the pelvic region in order to image the pelvis and prostatic bed before arrival of urinary radioactivity. […] The patient was rescanned 2 weeks after initiating androgen deprivation therapy.
Patient 5: A person was initially diagnosed five years prior with locally advanced clinical stage T3NOMO prostate cancer and underwent radical prostatectomy followed by external beam radiation to the prostate bed. […] The patient was then treated with Zolex and Casodex.

Data set [3] relates to patients with breast cancer. Kind of data set: PET imaging in patients with breast cancer. The format is in vivo, human. To be noted: person, metastatic breast cancer. The procedure: In breast cancer patients, whole-body PET scans were obtained, beginning at 10 min post-administration of FCH. In patients with brain tumors, PET scans of the brain were obtained, beginning at 5 min post-administration of FCH.
Thirteen patients with metastatic breast cancer and one patient with both primary and metastatic breast cancer were each imaged with both FCH-PET and FDG-PET within a period of less than one month.
A person had undergone re-excision of right breast intraductal carcinoma 4 yr prior, then right modified radical mastectomy 3 yr prior followed by tamoxifen chemotherapy. Six months prior to the PET scans, metastatic breast cancer was detected by palpation (right breast sternal mass) and CT (mediastinal and hilar adenopathies, mass in right anterior pelvis). Tamoxifen therapy was stopped. […] Uptake of FCH was also observed in the corresponding tumors: sternal mass (SUV=14.6), mediastinal and hilar adenopathies (SUVs˜8.5), pelvic mass (SUV=6.5). […] Smaller metastases were indicated on the FCH-PET scan in the right chest wall and left lung that were not seen on the FDG-PET scan. Concerning the anterior pelvic tumor, there was observed a homogenous distribution of FDG across the tumor in the FDG-PET scan, whereas the FCH was preferentially distributed on the periphery of the tumor.

The next data set has as its system BALB/c nude mice. Kind of data set: Acute toxicity study in mice. In kind it is in vivo. To be noted: 1 mg/kg body weight. The protocol: Four unanesthetized BALB/c nude mice were administered 1 mg/kg [^19F]FCH via tail vein injection and monitored for 48 hr. This dose represented an approximately 300,000 fold excess of FCH in comparison to the normal dose that a 70 kg person would receive in a [^18F]FCH study. The mice were euthanized at 48 hr.
Acute toxicity of 1 mg/kg body weight of [^19F]FCH was determined in four untreated BALB/c mice. […] Based on estimates of specific activity of the [^18F]FCH (2 Ci/mmol), the normal dose of FCH in the radiotracer preparation would be a factor of 300,000 times lower than the dose given in this toxicity study.

Another data set addresses T1, yeast choline kinase (Saccharomyces cerevisiae, UniProt P20485).
T1 sequence (P20485 1-582): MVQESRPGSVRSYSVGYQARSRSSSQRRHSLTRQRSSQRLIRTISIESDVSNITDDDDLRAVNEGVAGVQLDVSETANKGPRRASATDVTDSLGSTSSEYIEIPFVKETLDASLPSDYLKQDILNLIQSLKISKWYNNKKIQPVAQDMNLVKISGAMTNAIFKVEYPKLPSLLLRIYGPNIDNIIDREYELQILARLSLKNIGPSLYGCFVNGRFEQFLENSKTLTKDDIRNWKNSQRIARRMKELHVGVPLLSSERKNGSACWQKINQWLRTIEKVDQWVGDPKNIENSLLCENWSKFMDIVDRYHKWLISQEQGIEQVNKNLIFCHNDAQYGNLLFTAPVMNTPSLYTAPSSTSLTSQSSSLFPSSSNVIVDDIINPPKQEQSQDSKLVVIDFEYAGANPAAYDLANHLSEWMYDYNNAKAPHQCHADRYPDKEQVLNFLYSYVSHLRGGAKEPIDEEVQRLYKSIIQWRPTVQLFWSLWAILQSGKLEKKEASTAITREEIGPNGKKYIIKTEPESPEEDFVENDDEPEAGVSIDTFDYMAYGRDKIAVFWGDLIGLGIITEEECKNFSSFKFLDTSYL
Kind of data set: In vitro phosphorylation by yeast choline kinase. The format is biochemical. To be noted: 1 μM choline; for In vitro phosphorylation: 25 mU/ml yeast choline kinase, 23° C., 10 min, n = 5. The protocol:
The test tube was gently agitated throughout the incubation period. The reaction was stopped by placing the tube in a boiling water bath for 2 min. To serve as controls, some samples were placed directly in the boiling water bath after addition of all substrates. […] The percentage of radioactivity converted to the phosphorylated form was calculated.

For data set [4], the system named is PC-3 human prostate cancer cells. Description: Accumulation of radiotracers by cultured PC-3 cells. In kind it is cell-based. The protocol:
The incubation media utilized for the experiments differed according to the cancer cell type (Table 1). On the day of the study, the medium was refreshed using a volume of 1 ml in each well. Cells were incubated in control conditions or with the addition of metabolic and growth factor receptor inhibitors to test the sensitivity of uptake of the radiotracers to specific inhibitions. […] Following a 30-min incubation period, the radiotracers (e.g., FDG or FCH) were added (˜2 µCi/well) and the cells were incubated for 2 hr. The cells were washed three times with phosphate buffered saline solution, released from the plates by briefly incubating with 0.05% trypsin in DMEM, transferred to test tubes, and counted for F-18 radioactivity in a gamma counter. The amount of radioactivity in the cells was normalized by the dose administered to each well.
The present work studies the structure-activity relationships for purposes of optimization of the molecule for imaging prostate cancer. […] A number of structural analogs of choline were labeled as N-[^18F]fluoromethyl derivatives via the intermediate [^18F]fluorobromomethane (see Table 3). Uptake of the radiotracers was assessed in cultured PC-3 human prostate cancer cells and in a murine PC-3 xenograft model.

For the next data set, the system named is normal human subjects. To be noted: cited from earlier work.
Data set [5] relates to PC-3 prostate cancer cells. Kind of data set: Analysis of radiolabeled metabolites in PC-3 prostate cancer cells. The format is cell-based, human. To be noted: PC-3 cells, 2 hr. The protocol: The primary hydrophilic metabolites of choline in mammals is phosphocholine and betaine. […] The HPLC system used a microprocessor-controlled solvent delivery system and a silica column (Adsorbosphere Silica (10μ), 250×4.6 mm, Alltech, Deerfield, Ill.). The column was kept at room temperature and the flow rate was maintained at 1.5 ml/min. […] Fractions of effluent were collected every 0.5 min and first counted for ^18F-radioactivity in a well-counter for experiments involving [^18F]FCH, then transferred to scintillation vials for counting for ^14C-radioactivity. The column was equilibrated for 6 min with Buffer A before injection. After the injection (<100 μl), Buffer A was delivered for 6 min which eluted betaine (3 min) from the column. […] Re-equilibration of the column with 100% A for 6 min preceded the next injection.
Methanol (1 ml) was added to each well and the cells were lysed by maintaining the temperature at 37° C. for 30 min. The methanol phase was transferred to a glass test tube. Each well was rinsed with an additional 0.5 ml methanol which was added to the original fraction. To each tube, 3 ml chloroform and 1 ml 0.25 M sodium phosphate (pH=4.5) were added to separate lipids from water-soluble molecules. After vigorous mixing of the samples for 1 min, the two phases were separated, and a 0.5 ml aliquot of each phase was counted for ^18F and ^14C radioactivity. The aqueous phase was further analyzed for water-soluble metabolites using the gradient-HPLC method previously described.
Cells incubated in 6-well plates for 2 hr with radiotracers were thoroughly washed to remove all extracellular radioactivity. The cells were lysed in methanol and the methanol solution added to chloroform to solubilize all lipophilic metabolites.

Take `OC[C@H]1OC(O)[C@H]([18F])[C@@H](O)[C@@H]1O` (some centres unmarked) [FDG, [^18F]fluoro-2-deoxy-glucose, reference compound]: in data set [1] (45 min), the “Uptake in Blood” value is reported as 2.8 ± 0.009 % dose kg/100 g, the “Uptake in Brain” value is 8.0 ± 0.7 % dose kg/100 g, the “Uptake in Heart” value is 48.2 ± 17.9 % dose kg/100 g and the “Uptake in Kidney” value amounted to 5.3 ± 1.9 % dose kg/100 g. In addition, in data set [1] (45 min), the “Uptake in Liver” value was 1.5 ± 0.4 % dose kg/100 g, the “Uptake in Lung” value turned out to be 7.4 ± 3.1 % dose kg/100 g, the “Uptake in Prostate” value worked out at 2.3 ± 0.4 % dose kg/100 g and the “Uptake in Skeletal Muscle” value is reported as 8.3 ± 0.4 % dose kg/100 g. For the same compound, the “Uptake in Tumor” value in data set [1] (45 min) was determined as 8.9 ± 0.7 % dose kg/100 g. Moreover, the “SUV of osseous lesion (pubic ramus)” value in data set [2] (Example 11 patient, metastatic prostate cancer) is on record as 6.5. Besides, the “SUV values relative to FCH in the same lesions” value in data set [2] (Patient 3) is reported as “approximately one half”. Moreover, in data set [2] (patient #3, FIG. 8), the “SUV index in osseous lesions” value was 4.1. Moreover, in data set [3], the “SUV of pelvic tumor / pelvic mass” value is 9.5; the “SUV of sternal mass” value is listed as 5.0; the “SUVs of mediastinal and hilar adenopathies” value is reported as roughly 5.5.
Take `C[N+](C)(CF)CCO.[Cl-]` [[^19F]FCH, Dimethylfluoromethyl-2-hydroxyethylammonium Chloride]: the behavioural/movement abnormalities result in the data set on BALB/c nude mice (48 hr monitoring) was “Neither were any behavioural/movement abnormalities observed”. Also, the deaths result in the data set with BALB/c nude mice (tail vein, up to 48 hr, four mice) is reported as “No deaths were observed”.
On to `C[N+](C)(CCO)CC[18F]` [HARA-1, 2-[^18F]fluoroethyl-dimethyl-2-hydroxyethyl-ammonium, reference compound], for which, at yeast choline kinase, the “phosphorylation rate, less than for FCH” value was “approximately 30%” and the In vitro phosphorylation amounted to 43.4 ± 3.4 %. The “accumulation by cultured PC-3 cells compared with other tracers” value in data set [4] (control conditions) was “one fifth of the uptake of FCH”. Besides, in data set [4] (control, 2 hr incubation), the “Uptake by PC-3 cancer cells, Control” value is given as 0.32 ± 0.05 % dose/2 hr/105 cells plated. In addition, the “Uptake by PC-3 cells” value in data set [4] (inhibitor none) is reported as 0.322 ± 0.054 % dose/2 hr/10^5 cells plated. Besides, the “urinary excretion compared with CH” value with normal human subjects is “more prominent urinary excretion of radioactivity”.
`C[N+](C)(C)CCO` [CH, [methyl-^14C]Choline, reference compound]: the In vitro phosphorylation at yeast choline kinase is 55.9 ± 11.0%. Further, the “oxidation in the cancer cells (betaine / fluorobetaine by HPLC)” value in data set [5] was “negligible”. Besides, in data set [1] (10 min), the “Uptake in Blood” value stood at 2.1 ± 0.3 % dose kg/100 g, the “Uptake in Brain” value is recorded as 1.4 ± 0.7 % dose kg/100 g, the “Uptake in Heart” value was determined as 20.3 ± 7.2 % dose kg/100 g and the “Uptake in Kidney” value is 99.0 ± 12.9 % dose kg/100 g. Also, in data set [1] (10 min), the “Uptake in Liver” value was found to be 52.3 ± 11.9 % dose kg/100 g, the “Uptake in Lung” value is on record as 26.0 ± 9.6 % dose kg/100 g, the “Uptake in Prostate” value is reported as 9.0 ± 6.8 % dose kg/100 g and the “Uptake in Skeletal Muscle” value is given as 4.7 ± 1.7 % dose kg/100 g. The “Uptake in Tumor” value in data set [1] (10 min) stood at 3.2 ± 1.8 % dose kg/100 g. In data set [1] (30 min), the “Uptake in Blood” value is listed as 1.5 ± 0.9 % dose kg/100 g, the “Uptake in Brain” value came to 1.0 ± 0.8 % dose kg/100 g, the “Uptake in Heart” value turned out to be 9.7 ± 1.9 % dose kg/100 g and the “Uptake in Kidney” value came out at 53.4 ± 7.3 % dose kg/100 g. In data set [1] (30 min), the “Uptake in Liver” value is 65.2 ± 19.4 % dose kg/100 g, the “Uptake in Lung” value is reported as 9.6 ± 6.6 % dose kg/100 g, the “Uptake in Prostate” value was 5.9 ± 2.5 % dose kg/100 g and the “Uptake in Skeletal Muscle” value worked out at 2.5 ± 1.5 % dose kg/100 g. In addition, in data set [1] (30 min), the “Uptake in Tumor” value came out at 4.8 ± 1.6 % dose kg/100 g. In addition, in data set [1] (60 min), the “Uptake in Blood” value was 2.2 ± 1.0 % dose kg/100 g, the “Uptake in Brain” value is 1.7 ± 0.6 % dose kg/100 g, the “Uptake in Heart” value was 9.1 ± 2.5 % dose kg/100 g and the “Uptake in Kidney” value amounted to 41.5 ± 15.0 % dose kg/100 g. In data set [1] (60 min), the “Uptake in Liver” value is 67.1 ± 49.7 % dose kg/100 g, the “Uptake in Lung” value is listed as 16.7 ± 3.7 % dose kg/100 g, the “Uptake in Prostate” value was found to be 5.5 ± 2.6 % dose kg/100 g and the “Uptake in Skeletal Muscle” value came out at 2.8 ± 1.7 % dose kg/100 g. Further, in data set [1] (60 min), the “Uptake in Tumor” value was 6.7 ± 2.5 % dose kg/100 g. The “injected dose in the urinary bladder” value in data set [1] (at 30 min) was determined as 1%.
